{"source": "patent US20100267680A1", "about": "“USE OF AT LEAST ONE OXIME DERIVATIVE OF CHOLEST-4-EN-3-ONE AS ANTIOXIDANTS” (priority 2007, published 2010)", "key": {"[1]": {"test": "Competition with DMPO for tBuO radical, EPR quantification of DMPO-tBuO adduct", "conditions": "for % inhibition of the DMPO-tBuO radical: compound 20 mM equimolar to DMPO", "method": "The nitrones trap the radical species (R.; […]) and allow their observation by electron paramagnetic resonance (EPR) (Degray J. et al. Electron Spin Resonance, Ed N.M. Atherton, Atheaeum Press Ltd; Cambridge, 1994, 14, 246).\nThe incubation of the DMPO (Interchim-U2469) (20 mM) in deoxygenated toluene (Sigma-Aldrich) in the presence of the tBuO (tert-butoxyl) radical, generated by photolysis, makes it possible to identify and quantify by EPR the signal of the DMPO-tBuO radical. This signal is inhibited in the presence of an equimolar quantity of cholest-4-en-3-one oxime.\nThe EPR signal allows integration in the form of an area of the signal of the DMPO-tBuO adduct and therefore a relative quantification of this radical entity.\nAll the experiments were carried out on an X-band Bruker ESP300 device (9.5 GHz) at ambient temperature. The solutions were studied in a quartz EPR tube."}, "[2]": {"test": "Oxidation of cumene to cumene hydroperoxide by oxygen with AIBN, HPLC-UV assay", "conditions": "for % of reduction of the oxidation of the cumene / Area of the signal, in relative units, of the cumene hydroperoxide: 2 equivalents of AIBN, 2 hours 45° C.", "method": "The oxidation of cumene at atmospheric pressure and at 37° C. by oxygen is known and described in the presence of a radical initiator such as AIBN (azobisisobutyronitrile) (Blanchard H. S., J. Am. Chem. Soc. 1959, 81, 4548). A recent publication used this reaction to classify the antioxidant potential of known products such as vitamin E (which is the universal reference), BHT (butylated hydroxytoluene) and other products.\nIn the following experiment we reproduced the same experimental conditions as those described in the publication of Becker D. A. et al. (J. Am. Chem. Soc. 2002, 124, 4678-4684). A high pressure liquid chromatography method coupled with a UV detector was used to detect cumene hydroperoxide. The column used is an Agilent Zorbax Eclipse XDB RPC8 column (150×4.6 mm) coupled with a UV detector fixed at 254 nm. The gradient used is detailed in the following table: […]\n2 ml of cumene (AcrosOrganic) and 0.5 ml of methanol are mixed, azobisisobutyronitrile (AcrosOrganic) is added (2 equivalents) and the solution taken to 45° C. in order to accelerate the chemical reaction. The cumene hydroperoxide appears over time and is assayed by the HPLC method.\nThe technique used made it possible to compare the appearance of the cumene hydroperoxide in the presence of an antioxidant agent such as the claimed products and vitamin E used as reference product."}, "[3]": {"tested_on": "Beagles", "test": "General toxicity study, oral once daily for 39 weeks", "format": "in vivo", "conditions": "suspension in corn oil", "method": "A general toxicity study was carried out on Beagles receiving cholest-4-èn-3-one oxime in suspension in corn oil by oral administration once daily for 39 weeks. The detailed toxicological analysis of this study made it possible to describe a dose with a no-observed-effect level (NOEL) at 50 mg/kg."}, "[4]": {"test": "Pharmacokinetics in the dog, oral and intra-venous, plasma assay by HPLC-MS", "format": "in vivo", "conditions": "500 mg/kg oral route, suspension in corn oil, vs intra-venous", "method": "A study of pharmacokinetics with administration by oral route in suspension in corn oil and by intra-venous route in solution in cremophor/ethanol/water (5%, 10%, 85%) made it possible to calculate the bioavailability of the product. The assay of the product in the plasma is carried out by a high pressure liquid chromatography method coupled with mass spectrometry."}, "[5]": {"test": "Chemical stability of powder under ICH storage conditions, HPLC-UV total impurities", "format": "physicochemical", "conditions": "for total impurities: powder", "method": "These analyses were carried out using a high pressure liquid chromatography method coupled with a UV detector. This method makes it possible to quantify the impurities at a level of 0.05%."}}}
{"compound": "CC(C)CCC[C@@H](C)[C@H]1CC[C@H]2[C@@H]3CCC4=CC(=NO)CC[C@]4(C)[C@H]3CC[C@]12C", "note": "[cholest-4-en-3-one oxime]", "values": [{"measurement": "Area of the DMPO-tBuO signal at 200 s in relative units", "setting": "[1]; DMPO 20 mM + compound 20 mM, (t-BuO)2 20 mM, photolysis at 350 nm, 200 s", "result": 3, "unit": "relative units"}, {"measurement": "Area of the DMPO-tBuO signal at 400 s in relative units", "setting": "[1]; DMPO 20 mM + compound 20 mM, (t-BuO)2 20 mM, photolysis at 350 nm, 400 s", "result": 5.5, "unit": "relative units"}, {"measurement": "DMPO-tBuO EPR signal in the presence of an equimolar quantity of compound", "setting": "[1]; DMPO 20 mM in deoxygenated toluene, equimolar compound", "result": "inhibited"}, {"measurement": "% inhibition of the DMPO-tBuO radical", "setting": "[1]; 200 s", "result": 50, "unit": "%"}, {"measurement": "% inhibition of the DMPO-tBuO radical", "setting": "[1]; 400 s", "result": 40, "unit": "%"}, {"measurement": "inhibition of the level of the DMPO-tBuO signal radical", "setting": "[1]; conclusion of Example 1", "result": "~50", "unit": "%"}, {"measurement": "kinetics of inhibition of the DMPO-tBuO signal", "setting": "[1]; rapid kinetics", "result": "less than 10 minutes"}, {"measurement": "% of reduction of the oxidation of the cumene", "setting": "[2]; 100 μM", "result": 38, "unit": "%"}, {"measurement": "Area of the signal, in relative units, of the cumene hydroperoxide", "setting": "[2]; 100 μM", "result": 250, "unit": "relative units"}, {"measurement": "% of reduction of the oxidation of the cumene", "setting": "[2]; 200 μM", "result": 57, "unit": "%"}, {"measurement": "Area of the signal, in relative units, of the cumene hydroperoxide", "setting": "[2]; 200 μM", "result": 175, "unit": "relative units"}, {"measurement": "reduction of the oxidation of the cumene by oxygen", "setting": "[2]; conclusion of Example 2", "result": "approximately 40%"}, {"measurement": "activity compared with vitamin E", "setting": "[2]; same concentrations, same conditions", "result": "activity similar to vitamin E"}, {"measurement": "no-observed-effect level (NOEL)", "setting": "[3]", "result": 50, "unit": "mg/kg"}, {"measurement": "bioavailability", "setting": "[4]", "result": 6, "unit": "%"}, {"measurement": "change in the quality of the product", "setting": "[5]; after 2 year's storage at 25° C.", "result": "No change in the quality of the product"}, {"measurement": "change in the quality of the product", "setting": "[5]; after 6 months of storage at 40° C.", "result": "No change in the quality of the product"}, {"measurement": "total impurities", "setting": "[5]; 25° C. under 60% relative humidity, T0", "result": 1.8, "unit": "%"}, {"measurement": "total impurities", "setting": "[5]; 25° C. under 60% relative humidity, T24 months", "result": 1.8, "unit": "%"}, {"measurement": "total impurities", "setting": "[5]; 40° C. under 75% relative humidity, T0", "result": 2.1, "unit": "%"}, {"measurement": "total impurities", "setting": "[5]; 40° C. under 75% relative humidity, T6 months", "result": 1.9, "unit": "%"}]}
{"compound": "vitamin E [reference compound]", "values": [{"measurement": "% of reduction of the oxidation of the cumene", "setting": "[2]; 100 μM", "result": 39, "unit": "%"}, {"measurement": "Area of the signal, in relative units, of the cumene hydroperoxide", "setting": "[2]; 100 μM", "result": 245, "unit": "relative units"}]}
